This is an account of results in patent US4829069A, “4-Thioquinazoline derivatives as antiulcer agents” (Nisshin Flour Milling Co., Ltd., priority 1987, dated 1989).

A value given as a limit tells only on which side of the number the result lay.

Series [1] deals with indomethacin induced ulcer. Nature of the series: Antiulcer activity: suppression of indomethacin induced ulcer. It is filed as in vivo, mouse (ddy series male mice). The conditions noted are these: 100 mg/kg to the stomach 30 minutes before 20 mg/kg indomethacin p.o.; mean ulcer index vs control group, 4 hours after indomethacin. Here is the method: The antiulcer activity of the compounds of this invention was determined by the following method. Four-week-old ddy series male mice were used as the test animals after they were fasted for 24 hours. Each test compound suspended in a 1% gum arabic solution was administered to the stomach of each mouse at a dose of 100 mg/kg, and then, after 30 minutes, 20 mg/kg of indomethacin was administered orally. Four hours after the administration of indomethacin, the stomach of mouse was extirpated and the length of ulcers was measured. Then, the ulcer index was determined by the total sum of the scores as calculated in Table 1. The mean ulcer index of each group was calculated and the suppression rate against the control group in terms of difference in the mean ulcer index was determined.

A further series can be described thus: Toxicity, LD50 (P.O.). Conditions: in vivo, po.
The conditions of series [2]: background; cited from earlier work.

Turning to `c1ccc(CSc2ncnc3ccccc23)nc1` [4-(2-Pyridylmethylthio)-quinazoline], the “Suppression rate of indomethacin induced ulcer, 100 mg/kg, p.o.” value (“Suppression rate … p.o.” for short) in series [1] turned out to be 94. Besides, the LD50 (commonly the dose at which mortality reaches 50%) in the series “Toxicity, LD50 (P.O.)” was > 1000 mg/kg. Moreover, the reversion test entry in the series “Reversion test” was “negative”. Take `c1ccc2nc(CSc3ncnc4ccccc34)ccc2c1` [4-(2-Quinolylmethylthio)-quinazoline]: the “Suppression rate … p.o.” value in series [1] is 70. With `c1ccc2c(SCc3ccncc3)ncnc2c1` [4-(4-Pyridylmethylthio)-quinazoline], the “Suppression rate … p.o.” value in series [1] amounted to 92. In the case of `CCN(CC)CCSc1ncnc2ccccc12` [4-[2-(Diethylamino)ethylthio]-quinazoline], the “Suppression rate … p.o.” value in series [1] turned out to be 49.

Turning to `COc1cc(CSc2ncnc3ccccc23)ncc1C` [4-[(4-Methoxy-5-methylpyridin-2-yl)methylthio]-quinazoline], the “Suppression rate … p.o.” value in series [1] stood at 81.

In the case of `Cc1ccnc(CSc2ncnc3ccccc23)c1` [4-[(4-Methylpyridin-2-yl)methylthio]-quinazoline], the “Suppression rate … p.o.” value in series [1] is recorded as 70. Turning to `CN/C(=N/CCSCc1nc[nH]c1C)NC#N` [Cimetidine, reference compound], the “Suppression rate … p.o.” value in series [1] turned out to be 40. Also, in series [2], the side effects entry was “gynecomatism”.
